Earlier results as cited in PubChem BioAssay AID1259409 (Chemical Carcinogenesis Research Information System (CCRIS), 2018).

Test system: rodent chemically induced tumor inhibition, incidence and multiplicity
Assay: CCRIS tumor inhibitor studies
Details: Route [Inhibitor]: ORAL, Species: RAT

CCCCCCOc1cc(C)c(O)c(C)c1C
tumour outcome (control, treated, inhibition, significance) (Carcinogen: 1,2-DIMETHYLBHYDRAZINE [540-73-8], Dose [Inhibitor]: 0.5% IN DIET FOR 32 WK BEGINNING 1 WK POST LAST CARCINOGEN DOSE (STUDY DURATION: 36 WK), Strain/Sex: F344/MALE, Target Tissue: Type of Lesion: COLON: ADENOMA OR CARCINOMA, Dose [Carcinogen]: 40 MG/KG BW 1X/WK FOR 4 WK (STUDY DURATION: 36 WK), Promoter: 2-AMINO-1-METHYL-6-PHENYLIMIDAZO[4,5-B]PYRIDINE [105650-23-5]): 20/21 (95%), 19/19 (100%), -5%, not significant
tumour outcome (control, treated, inhibition, significance) (Carcinogen: 2-AMINO-1-METHYL-6-PHENYL-1H-IMIDAZO[4,5-B]PYRID INE, 105650-23-5, Dose [Inhibitor]: 0, 0.5% IN THE DIET FOR 52 WK (STUDY DURATION: 52 WK), Strain/Sex: F344/FEMALE, Target Tissue: Type of Lesion: MAMMARY GLAND: ADENOCARCINOMA FIBROADENOMA, Dose [Carcinogen]: 0.02% IN THE DIET FOR 52 WK, Promoter: NONE USED): 2/20 (10%), 0/21 (0%), 100%, not significant
tumour outcome (control, treated, inhibition, significance) (Carcinogen: 2-AMINO-1-METHYL-6-PHENYL-1H-IMIDAZO[4,5-B]PYRID INE, 105650-23-5, Dose [Inhibitor]: 0, 0.5% IN THE DIET FOR 52 WK (STUDY DURATION: 52 WK), Strain/Sex: F344/FEMALE, Target Tissue: Type of Lesion: MAMMARY GLAND: ADENOCARCINOMA, Dose [Carcinogen]: 0.02% IN THE DIET FOR 52 WK, Promoter: NONE USED): 8/20 (40%), 1/21 (5%), 88%, p< 0.01
tumour outcome (control, treated, inhibition, significance) (Carcinogen: 2-AMINO-1-METHYL-6-PHENYLIMIDAZO[4,5-B]PYRIDINE, 105650-23-5, Dose [Inhibitor]: 0, 0.5% IN DIET FOR 52 WK CONCURRENTLY WITH CARCINOGEN TREATMENT (STUDY DURATION: 52 WK), Strain/Sex: F344/FEMALE, Target Tissue: Type of Lesion: LARGE INTESTINE: ADENOMA OR CARCINOMA, Dose [Carcinogen]: 0.02% IN DIET FOR 52 WK, Promoter: NONE USED): 2/18 (11%), 0/21 (0%), 100%, not calculated
tumour outcome (control, treated, inhibition, significance) (Carcinogen: 2-AMINO-1-METHYL-6-PHENYLIMIDAZO[4,5-B]PYRIDINE, 105650-23-5, Dose [Inhibitor]: 0, 0.5% IN DIET FOR 52 WK CONCURRENTLY WITH CARCINOGEN TREATMENT (STUDY DURATION: 52 WK), Strain/Sex: F344/FEMALE, Target Tissue: Type of Lesion: MAMMARY GLAND: ADENOCARCINOMA, Dose [Carcinogen]: 0.02% IN DIET FOR 52 WK, Promoter: NONE USED): 8/20 (40%), 1/21 (5%), 88%, p<0.01
tumour outcome (control, treated, inhibition, significance) (Carcinogen: DIETHYLNITROSAMINE, 55-18-5, N-METHYL-N-NITROSOUREA, 684-63-5, N-BUTYL-N-(4-HYDROXYBUTYL)NITROSAMINE, 3817-11-6, DIMETHY, Carcinogen: DIETHYLNITROSAMINE, 55-18-5, N-METHYL-N-NITROSOUREA, 684-63-5, N-BUTYL-N-(4-HYDROXYBUTYL)NITROSAMINE, 3817-11-6, DIMETHY, Dose [Inhibitor]: 0, 1% IN THE DIET FOR 30 D BEGINNING 1 D PRIOR TO CARCINOGEN TREATMENT (STUDY DURATION: 28 WK), Strain/Sex: F344/MALE, Target Tissue: Type of Lesion: SMALL INTESTINE: CARCINOMA, Dose [Carcinogen]: 100 MG/KG BW DEN ONCE FOLLOWED BY 20 MG/KG BW MNU 4 TIMES AND 0.05% BBN IN DRINKING WATER DURING FIRST 2 WK THEN 40 MG/K, Promoter: NONE USED): 7%, 14%, -100%, not significant
tumour outcome (control, treated, inhibition, significance) (Carcinogen: DIETHYLNITROSAMINE, 55-18-5, N-METHYL-N-NITROSOUREA, 684-93-5, N-BUTYL-N-(4-HYDROXYBUTYL)NITROSAMINE, 3817-11-6, DIMETHY, Carcinogen: DIETHYLNITROSAMINE, 55-18-5, N-METHYL-N-NITROSOUREA, 684-93-5, N-BUTYL-N-(4-HYDROXYBUTYL)NITROSAMINE, 3817-11-6, DIMETHY, Dose [Inhibitor]: 0, 1% IN THE DIET FOR 24 MO BEGINNING 1 DAY POST CARCINOGEN TREATMENT (STUDY DURATION: 28 WK), Strain/Sex: F344/MALE, Target Tissue: Type of Lesion: LARGE INTESTINE: CARCINOMA, Dose [Carcinogen]: 100 MG/KG BW DEN ONCE FOLLOWED BY 20 MG/KG BW MNU 4 TIMES AND 0.05% BBN IN DRINKING WATER DURING FIRST 2 WK THEN 40 MG/K, Promoter: NONE USED): 7%, 7%, 0%, not significant
tumour outcome (control, treated, inhibition, significance) (Carcinogen: DIETHYLNITROSAMINE, 55-18-5, N-METHYL-N-NITROSOUREA, 684-93-5, N-BUTYL-N-(4-HYDROXYBUTYL)NITROSAMINE, 3817-11-6, DIMETHY, Carcinogen: DIETHYLNITROSAMINE, 55-18-5, N-METHYL-N-NITROSOUREA, 684-93-5, N-BUTYL-N-(4-HYDROXYBUTYL)NITROSAMINE, 3817-11-6, DIMETHY, Dose [Inhibitor]: 0, 1% IN THE DIET FOR 24 WK BEGINNING 1 D POST CARCINOGEN TREATMENT (STUDY DURATION: 28 WK), Strain/Sex: F344/MALE, Target Tissue: Type of Lesion: URINARY BLADDER: PAPILLOMA, Dose [Carcinogen]: 100 MG/KG BW DEN ONCE FOLLOWED BY 20 MG/KG BW MNU 4 TIMES AND 0.05% BBN IN DRINKING WATER DURING FIRST 2 WK THEN 40 MG/K, Promoter: NONE USED): 7%, 0%, 100%, not significant
tumour outcome (control, treated, inhibition, significance) (Carcinogen: DIETHYLNITROSAMINE, 55-18-5, N-METHYL-N-NITROSOUREA, 684-93-5, N-BUTYL-N-(4-HYDROXYBUTYL)NITROSAMINE, 3817-11-6, DIMETHY, Carcinogen: DIETHYLNITROSAMINE, 55-18-5, N-METHYL-N-NITROSOUREA, 684-93-5, N-BUTYL-N-(4-HYDROXYBUTYL)NITROSAMINE, 3817-11-6, DIMETHY, Dose [Inhibitor]: 0, 1% IN THE DIET FOR 24 WK BEGINNING 1 DAY POST CARCINOGEN TREATMENT (STUDY DURATION: 28 WK), Strain/Sex: F344/MALE, Target Tissue: Type of Lesion: LARGE INTESTINE: ADENOMA, Dose [Carcinogen]: 100 MG/KG BW DEN ONCE FOLLOWED BY 20 MG/KG BW MNU 4 TIMES AND 0.05% BBN IN DRINKING WATER DURING FIRST 2 WK THEN 40 MG/K, Promoter: NONE USED): 27%, 0%, 100%, p<0.05
